Data set [1] concerns Influenza A/H1N1 (A/Ned/378/05). Nature of the data set: microbe, parasite or virus in culture. Format: cell-based, human influenza virus. The conditions noted are these: read-out: Antiviral EC50 Influenza A/H1N1.
Data set [2] has as its system Respiratory syncytial virus (RSV; strain Long). Nature of the data set: microbe, parasite or virus in culture. Format: cell-based.
Data set [3] shares this test system. It is filed as cell-based. Conditions: read-out: Anti-RSV EC50, microscopic method.
The test system of data set [4] is Influenza A/H3N2 (A/HK/7/87). Nature of the data set: microbe, parasite or virus in culture. It is filed as cell-based, human influenza virus. The conditions noted are these: read-out: Antiviral EC50 Influenza A/H3N2.
The next data set deals with human coronavirus 229E. Nature of the data set: Antiviral assay against human coronavirus 229E in HEL cells, MTS readout. Format: cell-based.
Data set [5] can be described thus: in vitro. Conditions: dog.
Data set [6] can be described thus: in vitro. The conditions noted are these: human.
A short description of data set [7]: in vitro. The conditions noted are these: African green monkey.
Data set [8] can be described thus: in vitro. The conditions noted are these: human. This is another data set of the same source.
Data set [9] has as its system four mammalian cell lines.
Where [10] appears, read: human respiratory syncytial virus, HEp-2, read-out: Antiviral EC50 RSV.
Where [11] appears, read: Human coronavirus 229E, MTS assay, HEL cells.

15 molecules from PMC7180491, “Synthesis and Biological Evaluation of Novel (thio)semicarbazone-Based Benzimidazoles as Antiviral Agents against Human Respiratory Viruses” (Molecules, 2020) can be followed below.

“Also recorded” adds a separate entry of the source. Like-named read-outs stand apart in the source and are kept apart here.

With `CC(=NNC(N)=O)c1ccc2c(c1)nc(Cc1ccc(Cl)cc1)n2CCCN(C)C`, the melting point (usually the temperature of the solid-liquid transition) was in the range of 211 to 212.5 °C.
As for `CC(=NNC(N)=S)c1ccc2c(c1)nc(Cn1nc3ccccc3n1)n2CCN(C)C`, the melting point fell in the range of 214 to 217 °C.
Still for that read-out and setting: next, `CC(=NNC(N)=O)c1ccc2c(c1)nc(Cn1nc3ccccc3n1)n2CCN(C)C`: 209 to 212 °C.
Still for that read-out and setting: next, `CCN(CC)CCCn1c(Cc2ccc(OC)cc2)nc2cc(C(C)=NNC(N)=S)ccc21`: 180.7 to 182.9 °C.
As to “2-(1-{2-[(2H-Benzo[d][1,2,3]triazol-1-yl)methyl]-1-[3-(N,N-dimethylamino)propyl]-1H-benzo[d]imidazol-5-yl}ethylidene)hydrazine-1-carbothioamide [Compound 22]”, the EC50 in data set [1] is 41 µM; in data set [2] (read-out: Antiviral EC50 RSV), 7 µM; in data set [3] it was 8.9 µM; in data set [4], over 100 µM; in the data set with human coronavirus 229E, over 100 µM. In addition, the CC50 in the data set on HEL cells was 100 µM; in the data set with Hep-2 cells it was over 100 µM; in the data set on Vero cells, over 100 µM; with MDCK cells, over 100 µM.
As to “2-(1-{2-[(2H-Benzo[d][1,2,3]triazol-2-yl)methyl]-1-[3-(N,N-diethylamino)propyl]-1H-benzo[d]imidazol-5-yl}ethylidene)hydrazine-1-carbothioamide [Compound 21]”, the “Anti-RSV activity (in words)” value in data set [2] was “inactive”.
`CC(=NNC(N)=S)c1ccc2c(c1)nc(Cc1ccc(Cl)cc1)n2CCCN(C)C` [Compound 4, 2-{1-[2-(4-Chlorobenzyl)-1-[3-(N,N-dimethylamino)propyl]-1H-benzo[d]imidazol-5-yl]-ethylidene}hydrazine-1-carbothioamide] yielded a melting point of 110 to 111 °C. For the same molecule, in data set [2], the “Anti-RSV activity (in words)” value was “poorly effective; also recorded: inactive”.
Take `CCN(CC)CCCn1c(Cc2ccccc2)nc2cc(C(C)=NNC(N)=S)ccc21` [Compound 8, 2-(1-{2-Benzyl-1-[3-(N,N-diethylamino)propyl]-1H-benzo[d]imidazol-5-yl}ethylidene)-hydrazine-1-carbothioamide]: the EC50 in [1] (Influenza A virus, H1N1, MDCK) is 38 µM; in [2] (setting [10]), over 100 µM; in data set [4] (Influenza A virus, H3N2, MDCK), over 100 µM; in the data set on human coronavirus 229E (setting [11]), 56 µM. Also, the CC50 in the data set “in vitro [5]” is over 100 µM; in the data set “in vitro [6]”, over 100 µM; in “in vitro [7]”, 44 µM; in “in vitro [8]”, over 100 µM.
Regarding `CCN(CC)CCCn1c(Cc2ccccc2)nc2cc(C(C)=NNC(N)=O)ccc21` [Compound 16, 2-(1-{1-[3-(N,N-Diethylamino)propyl]-2-benzyl-1H-benzo[d]imidazol-5-yl}ethylidene)-hydrazine-1-carboxamide], the EC50 in data set [1] (Influenza A virus, H1N1, MDCK) was 47 µM; in data set [2] (setting [10]), over 100 µM; in [4] (Influenza A virus, H3N2, MDCK), over 100 µM; in the data set on human coronavirus 229E (setting [11]) it was 39 µM. The CC50 in “in vitro [5]”, in the data set “in vitro [6]”, in the data set “in vitro [7]” and in “in vitro [8]” was over 100 µM each time.
Molecule `CCN(CC)CCCn1c(Cc2ccc(OC)cc2)nc2cc(C(C)=NNC(N)=O)ccc21` [Compound 17, 2-(1-{1-[3-(N,N-Diethylamino)propyl]-2-(4-methoxybenzyl)-1H-benzo[d]imidazol-5-yl}-ethylidene)hydrazine-1-carboxamide] gave a melting point of 190 to 192 °C. Further, in [1] (Influenza A virus, H1N1, MDCK), the EC50 is 47 µM. The CC50 in the data set “in vitro [5]” was over 100 µM. The molecule further had a CC50 in “in vitro [7]” of 43 µM. In data set [9], the “Cytotoxicity (in words)” value was “produced cytotoxicity in two of the four cell lines”. Also, the EC50 in [2] (setting [10]) was over 100 µM. Besides, the EC50 in [4] (Influenza A virus, H3N2, MDCK) is over 100 µM. The molecule further came in with an EC50 in the data set with human coronavirus 229E (setting [11]) of 41 µM.
`CC(=NNC(N)=S)c1ccc2c(c1)nc(Cn1nc3ccccc3n1)n2CCCN(C)C` [Compound 19, 2-(1-{2-[(2H-Benzo[d][1,2,3]triazol-2-yl)methyl]-1-[3-(N,N-dimethylamino)propyl]-1H-benzo[d]imidazol-5-yl}ethylidene)hydrazine-1-carbothioamide] had a melting point of 212 to 214 °C. Also, the “Anti-RSV activity (in words)” value in data set [2] was “inactive”.
Regarding `NC(=O)c1ncn([C@@H]2O[C@H](CO)[C@@H](O)[C@H]2O)n1` [Ribavirin, reference compound], the EC50 in data set [1] (Influenza A virus, H1N1, MDCK) was found to be 7.4 µM; in data set [2] (setting [10]), 6.7 µM; in [4] (Influenza A virus, H3N2, MDCK) it was 7.5 µM. The CC50 in the data set “in vitro [6]” and in the data set “in vitro [7]” was over 250 µM throughout.
Regarding `CC(=O)N[C@H]1[C@H]([C@H](O)[C@H](O)CO)OC(C(=O)O)=C[C@@H]1N=C(N)N` [Zanamivir, reference compound], the EC50 in data set [1] (Influenza A virus, H1N1, MDCK) is 0.6 µM; in data set [4] (Influenza A virus, H3N2, MDCK), 31 µM. Further, in the data set “in vitro [5]”, the CC50 was over 100 µM.
“dextran sulfate MW 10,000 [DS-10,000, reference compound]”: in data set [2], the “Antiviral EC50 RSV” value stood at 0.01 µg/mL.

B1: UDA: UDA lectin, reference in the coronavirus 229E assay (protein, UniProt P11218 24-372, looked up)
Lectin/endochitinase 1: QRCGSQGGGGTCPALWCCSIWGWCGDSEPYCGRTCENKCWSGERSDHRCGAAVGNPPCGQDRCCSVHGWCGGGNDYCSGSKCQYRCSSSVRGPRVALSGNSTANSIGNVVVTEPLFDQMFSHRKDCPSQGFYSYHSFLVAAESFPAFGTIGDVATRKREVAAFLAHISQATSGERSDVENPHAWGLCHINTTTVTENDFCTSSDWPCAAGKKYSPRGPIQLTHNFNYGLAGQAIGEDLIQNPDLVEKDPIISFKTALWFWMSQHDNKPSCHDIVLNANSAANRIPNKGVIGNIISRAFGHDDFAVRSSSIGFYKRYCDMLGVSYGHDLKYWFDNTPSSEFQRIQMRVAA
In the case of B1, the “CC50 HEL” value in the data set on HEL cells is over 100 µg/mL. Besides, in the data set with human coronavirus 229E, the “Antiviral EC50 Coronavirus 229E” value was 2.2 µg/mL.
